Tests used:
Assay type in all cases: in vivo
DIO C57Bl6 mice = assay: Efficacy of various compounds in DIO mouse model (body weight versus time); conditions: for BW change vs. vehicle: day 26
Method: On study day 1 animals were randomized into groups so that the average weight of the mice in each group was 47 g. The mice were treated with either phosphate buffered saline (vehicle), or compounds as listed in Table 19 dissolved in vehicle (dorsal, subcutaneous administration).

DIO Levin rats = assay: Oral Glucose Tolerance Test (OGTT) Day 48 and HOMA-ir in DIO Levin rats; conditions: for Blood Glucose, Time 15 / Blood Glucose, Time 30 / Blood Glucose, Time 60 / Blood Glucose, Time 90 / Blood Glucose, Time 120: OGTT; for BW: at OGTT;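 on Blood Glucose pre-OGTT: blood glucose in mg/dL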;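 on Blood Glucose, Time 120: blood glucose in mg/dL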;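 on Blood Glucose, Time 15: blood glucose in mg/dL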;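 on Blood Glucose, Time 30: blood glucose in mg/dL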;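 on Blood Glucose, Time 60: blood glucose in mg/dL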;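 on Blood Glucose, Time 90: blood glucose in mg/dL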
Method: Animals were weighed every other day. Food consumption was measured weekly. On an approximately weekly basis throughout the study, blood samples were taken for assessment of serum chemistries including glucose and insulin. On Day 48 all rats underwent a 4 hour fasted Oral Glucose Tolerance Test (OGTT). Animals were dosed orally (per os, PO) at 8 mL/kg 25% glucose (2 g/kg). On day 68, gross pathology was performed to determine body composition.

Sprague Dawley male rats = assay: Tolerability of high IV doses on q7d schedule in Sprague Dawley rats; conditions: 100 mg/kg or 200 mg/kg IV on days 1, 8, 15, 22 and 29
Method: Sprague Dawley male rats (N=3) nine to ten weeks old with an average weight of 300 g were ad libitum fed standard rodent diet (PharmaServ lab diet 5001). […] The rats were weighed periodically and bled on day 10, day 17, day 24. For in-life blood collections, the rats were anesthetized with an inhalation mixture of 4% Isoflurane and 1.5% oxygen, then blood was collected via retro-orbital plexus puncture at a volume of at least 1 mL. […] Within the limits of comparison to normal ranges and pre-dose data, clinical findings for albumin, albumin/globulin ratio, alkaline, phosphatase, ALT (SGPT), AST (SGOT), bicarbonate, direct bilirubin, indirect bilirubin, total bilirubin, BUN, BUN/creatinine ratio, calcium, chloride, cholesterol, CK, creatinine, globulin, glucose, phosphorus, potassium, sodium, sodium/potassium ratio, total protein were unremarkable.

[1] = 0.6 mg/kd (so in the source) q4d sc
[2] = 03 mg/kg (so in the source) q4d sc

poly[HPMA-co-MA-GFLG-N-(trans-4-aminocyclohexyl)carbamoylfumagillol] [Compound 16]
Group Avg. BW, Study Day 1 (DIO C57Bl6 mice; 2 mg/kg q4d sc): 47.0 g
Group Avg. BW, Study Day 7 (DIO C57Bl6 mice; 2 mg/kg q4d sc): 43.4 g
Group Avg. BW, Study Day 15 (DIO C57Bl6 mice; 2 mg/kg q4d sc): 43.2 g
Group Avg. BW, Study Day 21 (DIO C57Bl6 mice; 2 mg/kg q4d sc): 42.0 g
Group Avg. BW, Study Day 26 (DIO C57Bl6 mice; 2 mg/kg q4d sc): 41.7 g
BW change vs. vehicle (DIO C57Bl6 mice; 2 mg/kg q4d sc): −9.6%
Group Avg. BW, Study Day 1 (DIO C57Bl6 mice; 12 mg/kg q8d sc): 47.0 g
Group Avg. BW, Study Day 7 (DIO C57Bl6 mice; 12 mg/kg q8d sc): 41.3 g
Group Avg. BW, Study Day 15 (DIO C57Bl6 mice; 12 mg/kg q8d sc): 38.3 g
Group Avg. BW, Study Day 21 (DIO C57Bl6 mice; 12 mg/kg q8d sc): 36.2 g
Group Avg. BW, Study Day 26 (DIO C57Bl6 mice; 12 mg/kg q8d sc): 38.0 g
BW change vs. vehicle (DIO C57Bl6 mice; 12 mg/kg q8d sc): −17.5%
HOMA-ir (Insulin Sensitivity) 15 min (DIO Levin rats; 0.3 mg/kg q4d sc): 40.1
HOMA-ir (Insulin Sensitivity) 30 min (DIO Levin rats; 0.3 mg/kg q4d sc): 10.8
HOMA-ir (Insulin Sensitivity) Pre-dose (DIO Levin rats; 0.3 mg/kg q4d sc): 14.6
Blood Glucose pre-OGTT (DIO Levin rats; [1]): 121 mg/dL
Blood Glucose, Time 15 (DIO Levin rats; [1]): 150 mg/dL
Blood Glucose, Time 30 (DIO Levin rats; [1]): 148 mg/dL
Blood Glucose, Time 60 (DIO Levin rats; [1]): 149 mg/dL
Blood Glucose, Time 90 (DIO Levin rats; [1]): 143 mg/dL
Blood Glucose, Time 120 (DIO Levin rats; [1]): 150 mg/dL
BW (DIO Levin rats; [1]): 662 g
HOMA-ir (Insulin Sensitivity) 15 min (DIO Levin rats; 1 mg/kg q4d sc): 50.1
HOMA-ir (Insulin Sensitivity) 30 min (DIO Levin rats; 1 mg/kg q4d sc): 18.1
HOMA-ir (Insulin Sensitivity) Pre-dose (DIO Levin rats; 1 mg/kg q4d sc): 16.4
Blood Glucose pre-OGTT (DIO Levin rats; [2]): 121 mg/dL
Blood Glucose, Time 15 (DIO Levin rats; [2]): 156 mg/dL
Blood Glucose, Time 30 (DIO Levin rats; [2]): 145 mg/dL
Blood Glucose, Time 60 (DIO Levin rats; [2]): 157 mg/dL
Blood Glucose, Time 90 (DIO Levin rats; [2]): 149 mg/dL
Blood Glucose, Time 120 (DIO Levin rats; [2]): 147 mg/dL
BW (DIO Levin rats; [2]): 697 g
Blood Glucose pre-OGTT (DIO Levin rats; 3 mg/kg q4d sc): 120 mg/dL
HOMA-ir (Insulin Sensitivity) 15 min (DIO Levin rats; 3 mg/kg q4d sc): 13.7
HOMA-ir (Insulin Sensitivity) 30 min (DIO Levin rats; 3 mg/kg q4d sc): 4.6
HOMA-ir (Insulin Sensitivity) Pre-dose (DIO Levin rats; 3 mg/kg q4d sc): 9.2
Blood Glucose, Time 15 (DIO Levin rats; 3 mg/kg q4d sc): 157 mg/dL
Blood Glucose, Time 30 (DIO Levin rats; 3 mg/kg q4d sc): 144 mg/dL
Blood Glucose, Time 60 (DIO Levin rats; 3 mg/kg q4d sc): 140 mg/dL
Blood Glucose, Time 90 (DIO Levin rats; 3 mg/kg q4d sc): 127 mg/dL
Blood Glucose, Time 120 (DIO Levin rats; 3 mg/kg q4d sc): 129 mg/dL
BW (DIO Levin rats; 3 mg/kg q4d sc): 582 g
Blood Glucose pre-OGTT (DIO Levin rats; 6 mg, q7d sc): 128 mg/dL
HOMA-ir (Insulin Sensitivity) 15 min (DIO Levin rats; 6 mg, q7d sc): 37.2
HOMA-ir (Insulin Sensitivity) 30 min (DIO Levin rats; 6 mg, q7d sc): 3.5
HOMA-ir (Insulin Sensitivity) Pre-dose (DIO Levin rats; 6 mg, q7d sc): 12.0
Blood Glucose, Time 15 (DIO Levin rats; 6 mg, q7d sc): 161 mg/dL
Blood Glucose, Time 30 (DIO Levin rats; 6 mg, q7d sc): 141 mg/dL
Blood Glucose, Time 60 (DIO Levin rats; 6 mg, q7d sc): 145 mg/dL
Blood Glucose, Time 90 (DIO Levin rats; 6 mg, q7d sc): 145 mg/dL
Blood Glucose, Time 120 (DIO Levin rats; 6 mg, q7d sc): 138 mg/dL
BW (DIO Levin rats; 6 mg, q7d sc): 604 g
evidence of neurotoxicity (ataxis, disorientation, tremor or convulsion) (Sprague Dawley male rats): did not exhibit any evidence of neurotoxicity
